A word on the viability: it is a read-out of living cells in per cent, often relative to untreated cells.

A short description of this data set: in vitro. The following applies: human, hela cells, % viability.

With `Cc1ccc(NC(=O)c2cc(N3C(=O)c4ccc(C(=O)O)cc4C3=O)ccc2N2CCCCC2)cc1` [CBK265274], the viability at 28.5 h, 10 µM is 99.9%.
Turning to `Cc1cc(C)nc(N2CCC(c3cc(CCOc4cccc(C(F)(F)F)c4)[nH]n3)C2)n1` (stereo not shown) [CBK285568], the viability at 28.5 h, 10 µM was 78.7%.
Same read-out and setting: for `COc1ccc(OC)c(NC(=O)CNC(=O)c2ccc(C)cc2)c1` [CBK268881] the value was 91.5%; for `COc1ccc(C(C)C)cc1-c1cn2ccnc2c(N(C)CCN(C)C)n1` [CBK066368], 94.8%.
Same read-out and setting: the figure for `CN1CCN(CC(=O)N2c3ccccc3C(C)(c3ccc(Cl)cc3)CC2(C)C)CC1` (stereo not shown) [CBK059202] is 88.1%; for `NC(=O)c1cccc(Cn2c3c(c4cccc(C(=O)O)c42)CCCCC3)c1` [CBK024834] it is 98.6%.
`N#CCSc1nnc(NC(=O)Nc2ccccc2)s1` [CBK028792]: the viability at 28.5 h, 10 µM is 85.3%.
Consider `CC(C)[C@H](CO)n1c(=O)[nH]c2ncc(-c3cccc4ncccc34)nc21` [CBK064955], for which the viability at 28.5 h, 10 µM amounted to 99.5%.
Same read-out and setting: the figure for `CN1CCN(C2Cc3ccccc3Sc3c(O)cccc32)CC1` (stereo not shown) [CBK026200G] is 98%; for `CCOc1cc(OCC)cc(C(=O)N2CCCC3(CC2)CC(=O)c2ccc(C)cc2O3)c1` (stereo not shown) [CBK168241] it is 98.2%.
Regarding `Fc1ccc(-n2cc(-c3cccnc3)nn2)cc1F` [CBK113055], the viability at 28.5 h, 10 µM is 89.3%.
On the same count and under the same terms, the figure for `Cc1c(NC(=O)CN(c2ccccc2)S(=O)(=O)N(C)C)cccc1[N+](=O)[O-]` [CBK269012] is 106%; for `CCCC(=O)c1ccc(S(=O)(=O)N2CCCN(Cc3cc(Br)cs3)CC2)cc1` [CBK062896] it is 91.2%.
As for `CC(Cc1nc(-c2ccnn2C)cs1)n1cc(Cl)cn1` (stereo not shown) [CBK304152], the viability at 28.5 h, 10 µM turned out to be 96.6%.
As for `Cc1ccc(NC(=O)CN2C(=O)S/C(=C\c3ccc4c(c3)n(C)c(=O)n4C)C2=O)cc1` [CBK264501], the viability at 28.5 h, 10 µM was 112%.
The same measure, in the same setting: the figure for `Cc1onc(-c2ccccc2)c1CNC(=O)[C@@H]1CCCN1C` [CBK144077] is 89.8%; for `Cc1ccc(CN(C)CC(=O)Nc2cc(C(F)(F)F)ccc2Cl)o1` [CBK306085] it is 90.4%.
The same measure, in the same setting: the figure for `CCc1ccc(CCC(=O)N2CCN(S(=O)(=O)c3sc(C(=O)O)c(C)c3C(=O)O)CC2)cc1` [CBK297138] is 111%.
Regarding `CCCn1ccnc1CN1CCC2(CC1)CC(C(=O)O)N(C(C)=O)C2` (stereo not shown) [CBK306691], the viability at 28.5 h, 10 µM was 92.9%.
Same read-out and setting: for `CCn1cc(S(=O)(=O)Nc2cccc(CCCC(=O)O)c2)cn1` [CBK304717] the value was 102%; for `CSc1nnc(CC2CCN(C(=O)c3ccccc3C(C)=O)CC2)n1C` [CBK306720], 111%.
The same measure, in the same setting: the figure for `CC(=O)N1c2ccccc2C(C)=CC1C1CCCC(=O)C1` (stereo not shown) [CBK007219] is 101%.
On the same count and under the same terms, the figure for `CC(=O)N1CCC(NC(=O)c2cccc(C(N)=O)c2)CC1` [CBK297747] is 115%; for `CCN(CC)C(=O)[C@@H]1CCCN(C2CCN(C(=O)c3c4ccccc4cc4ccccc34)CC2)C1` [CBK066966C] it is 90.4%; for `O=C(O)CCCn1cc(NC(=O)c2cc(F)c(F)cc2Cl)cn1` [CBK269967] it is 87.8%.
For the compound `O=C(CN1CCN(CCN2C(=O)c3cccc4cccc(c34)C2=O)CC1)c1ccc(Cl)cc1` [CBK265363], the viability at 28.5 h, 10 µM came to 78.1%.
With `Cc1ccc2[nH]c(C3CCCCN3C(=O)c3ccncc3)nc2c1` (stereo not shown) [CBK284000], the viability at 28.5 h, 10 µM stood at 103%.
Turning to `CSc1ccc(-c2cn3ccnc3c(Nc3ccccc3)n2)cc1` [CBK066537], the viability at 28.5 h, 10 µM was found to be 91.3%.
Consider `COc1cc(/C=C2\C(=O)NC(=O)N(c3ccc([N+](=O)[O-])cc3)C2=O)cc(Cl)c1OCC(=O)O` [CBK265431], for which, under “bulk resorufin, single well”, the viability at 28.5 h, 10 µM was found to be 98.3%.
For the compound `O=C(CCN1CCOCC1)N/N=C\c1cccs1` [CBK005035], the viability at 28.5 h, 10 µM came out at 90.6%.
For `O=C(NO)c1nccnc1-c1ccc(COc2ccccc2)cc1` [CBK050841], the viability at 28.5 h, 10 µM came to 96.4%.
As to `CCN(CC)CCN(Cc1ccc2c(c1)OCO2)C(=O)Nc1cccc(NC(C)=O)c1` [CBK159042], the viability at 28.5 h, 10 µM worked out at 108%.
For `COc1ccc(-c2cnc(N)c(N3CCC[C@@H]3CO)n2)c(OC)c1OC` [CBK063505], the viability at 28.5 h, 10 µM was found to be 98.5%.
On the same count and under the same terms, the figure for `O=C(NCCCN1CCc2ccccc2C1)C1CC1c1ccco1` (stereo not shown) [CBK305257] is 91.8%; for `NCCNc1ccc([N+](=O)[O-])c(Sc2nc3ccccc3[nH]2)c1` [CBK265882] it is 106%; for `Cn1c(SCc2cccnc2)nnc1-c1cccs1` [CBK067706] it is 93.1%.
For the compound `OCCN1CC2(CCN(Cc3ccc4ccccc4c3)CC2)c2ccccc21` [CBK131529], the viability at 28.5 h, 10 µM was 92.6%.
On the same count and under the same terms, the figure for `CC(NC(=O)C1CC(=O)N(c2cccc(F)c2)C1)C1CC2CCC1C2` (stereo not shown) [CBK281664] is 99.9%; for `CN(C)/C=N/c1ncnc2c1nc(Br)n2C1CC(O)C(CO)O1` (stereo not shown) [CBK201277] it is 93.6%; for `COc1cc(C(=O)N2CCC3(CC2)NC(=O)c2cc(C)ccc2O3)cc(OC)c1C` [CBK166273] it is 91%.
Consider `CC1(c2ccccc2)CC(C)(C)N(C(=O)CSc2nc3ccccc3o2)c2ccccc21` (stereo not shown) [CBK262466], for which the viability at 28.5 h, 10 µM turned out to be 104%.
The same measure, in the same setting: for `CCn1c(C)nn(-c2nc3c(Cl)cccc3s2)c1=O` [CBK026010] the value was 100%; for `O=C(Cn1cc(C(=O)NCc2ccc(F)cc2)ccc1=O)NC1(c2ccccc2)CCCC1` [CBK286081], 96.9%.
The same measure, in the same setting: the figure for `COc1ccc(NC(=O)c2cc(C(C)C)n(-c3nc4ccccc4s3)n2)cc1` [CBK287667] is 100%; for `COC(=O)c1cccc2c3c([nH]c12)CCCC3` [CBK000423] it is 87.8%; for `CCCc1nc(C(=O)NC2CC(=O)N(CCc3ccc(F)cc3)C2)cs1` (stereo not shown) [CBK306548] it is 105%.
On to `N#Cc1cnc2c(-c3ccccc3)c(Cc3ccccc3)nn2c1N` [CBK270191], for which the viability at 28.5 h, 10 µM was determined as 91.8%.
With `CCCc1[nH]nc(O)c1Cc1cccc(C)c1` [CBK075035], the viability at 28.5 h, 10 µM amounted to 91.3%.
The same measure, in the same setting: the figure for `CC(=O)c1ccc(-c2nc(NC(=O)c3cccc([N+](=O)[O-])c3)cnc2-c2ccc(F)c(Cl)c2)s1` [CBK036816] is 97.2%.
Still for that read-out and setting: for `COc1cc(Nc2cc(C)nc3ncnn23)ccc1N1CCCC1=O` [CBK297725] the value was 102%.
In the case of `Cc1ccc(C2(O)CCN(CCNC(=O)c3cccs3)CC2)cc1` [CBK283322], the viability at 28.5 h, 10 µM came out at 87.8%.
`Cc1ccccc1-c1ccccc1CC1(C(N)=O)CCN(C(=O)CC2CCCCC2)CC1` [CBK285723]: the viability at 28.5 h, 10 µM was determined as 103%.
For the compound `CN1C(C)(C)CC(NC(=O)c2[nH]cnc2C(=O)O)CC1(C)C` [CBK287102], the viability at 28.5 h, 10 µM is 87.5%.
Same read-out and setting: for `Cc1cc(COc2ccnc(N3CCCN(CC(N)=O)CC3)n2)no1` [CBK084036] the value was 85.9%; for `O=C(NC(NCc1ccc2c(c1)OCO2)(C(F)(F)F)C(F)(F)F)c1cccnc1` [CBK074397], 78.8%.
Same read-out and setting: the figure for `O=S(=O)(Nc1cccc(-c2cnco2)c1)c1cccc2cccnc12` [CBK067104] is 81%.
Still for that read-out and setting: the figure for `C[N+]1(CC(=O)c2ccccc2)C2CCC1CC(OC(=O)C(O)c1ccccc1)C2` (stereo not shown) [CBK022712C] is 120%; for `CC(NC(=O)C1CC(=O)OC1(C)C)c1ccc2c(c1)CCCO2` (stereo not shown) [CBK281613] it is 88.4%; for `CC(NS(=O)(=O)c1ccc(Cl)cc1)C(=O)Nc1ccccc1Sc1ccccc1` (stereo not shown) [CBK266984] it is 98.4%.
Regarding `CCn1nnnc1NCc1ccc(OCc2ccc(F)cc2Cl)c(OC)c1` [CBK268224], the viability at 28.5 h, 10 µM was 112%.
On to `O=C(NC1CCCN(c2cc(-c3ccncc3)n[nH]2)C1)c1ccsc1` (stereo not shown) [CBK288619], for which the viability at 28.5 h, 10 µM came to 104%.
On to `COc1cccc2c1cc(C(=O)NC1CCCN(C)C1)n2C` (stereo not shown) [CBK283266], for which the viability at 28.5 h, 10 µM was 90.2%.
On the same count and under the same terms, for `Cc1ccc(C(=O)N/C(=C\c2ccc3c(c2)OCO3)C(=O)NCC(=O)O)cc1` [CBK265669] the value was 109%; for `O=C(CSc1nc2ccccc2[nH]1)c1ccc2ccccc2c1` [CBK261739], 104%.
Regarding `Cc1ccc(Cn2nc(NC(=O)C3CCCCC3)c3ccccc32)cc1` [CBK048217], the viability at 28.5 h, 10 µM turned out to be 96.5%.
On the same count and under the same terms, for `CC(C)OC(=O)C(NC(=O)OC(C)(C)C)c1ccccc1` (stereo not shown) [CBK170399] the value was 90.4%; for `Cc1ncc(-c2ccc3ccccc3c2)s1` [CBK019439B], 91.5%; for `S=c1[nH]cc(-c2ccc(Br)cc2)o1` [CBK288498], 92.8%.
`CC(C)(C)c1cc(C(=O)Cn2c(=N)n(Cc3ccccc3)c3ccccc32)cc(C(C)(C)C)c1O` [CBK262480B]: the viability at 28.5 h, 10 µM came to 97.5%.
Regarding `O=C1N[C@]2(CCc3ccccc31)CN(Cc1ccccc1)C[C@H]2CO` [CBK284795], the viability at 28.5 h, 10 µM worked out at 106%.
As to `COC1C(O)C(CO)OC1n1cc(F)c(Oc2c(C)cc(C)cc2C)nc1=O` (stereo not shown) [CBK201279], the viability at 28.5 h, 10 µM is 98.2%.
Regarding `COC(=O)c1ccccc1NC(=O)CCSc1ccc(Cl)cc1` [CBK263817], the viability at 28.5 h, 10 µM amounted to 109%.
For the compound `Cn1ccnc1CN(CCCn1ccnc1)Cc1ccccc1F` [CBK283022], the viability at 28.5 h, 10 µM was found to be 102%.
`COc1ccc2oc(C(=O)NCCN3CCOCC3)c(C)c2c1OC` [CBK269913C]: the viability at 28.5 h, 10 µM came to 86.8%.
Same read-out and setting: the figure for `c1ccc(Oc2cccc(C(N3CCOCC3)N3CCOCC3)c2)cc1` [CBK261798] is 104%; for `Cc1nc(N)sc1-c1nnc(SC/C=C/c2ccccc2)n1C` [CBK269383] it is 81.7%; for `CCC1CCCCN1C(=O)c1cccs1` (stereo not shown) [CBK074214] it is 104%.
The same measure, in the same setting: the figure for `O=C(CSc1nc(O)cc(=O)n1-c1ccccc1)c1ccccc1` [CBK261745] is 103%; for `CCC(Oc1ccccc1)C(=O)Nc1cc(C)on1` (stereo not shown) [CBK288152] it is 101%.

The record behind these values is PMC12040169 (PLOS Biology, 2025).
